This note sets out measurements from US20250353891A1 (MEDIMMUNE LIMITED, priority 2022, published 2025).

For test [1], the target named is human glucagon receptor (hGCGR) (Homo sapiens, UniProt P47871). As to the kind of experiment: cAMP production (HTRF) in CHO cells expressing hGCGR. It counts as cell-based. Also noted: expressed in transfected cells. The note with it: geometric mean. The method in brief:
(§1)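 Cells were resuspended in assay buffer at batch-optimized density, typically 1×10^5 cells/mL for hGLP-1R and 2×10^5 cells/mL for hGCGR. After 30 min incubation at room temperature with compound, cAMP was measured by two-step HTRF. EC50 values came from 4-parameter logistic fits of % Delta F.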

The target of test [2] is human GLP-1 receptor (hGLP-1R) (Homo sapiens, UniProt P43220). As to the kind of experiment: cAMP production (HTRF) in CHO cells expressing hGLP-1R. Also noted: expressed in transfected cells. The note with it: for % Relative Potency Ratio: % GLP-1R activity relative to GLP-1 / % GlucR activity relative to glucagon. It counts as cell-based. The method in brief:
as §1
For orientation: cAMP levels reflect the balance of adenylyl cyclase and phosphodiesterase activity.

Where [3] appears, read: Table 7, peptides modified at position 20, cAMP in CHO hGCGR cells, read-out: hGluc-R EC50.
Where [4] appears, read: Table 7, peptides modified at position 20, cAMP in CHO hGLP-1R cells, geometric mean, read-out: hGLP-1R EC50.
Setting [5] is: Table 6, peptides modified at position 17, cAMP in CHO hGCGR cells, read-out: hGluc-R EC50.
Where [6] appears, read: Table 6, peptides modified at position 17, cAMP in CHO hGLP-1R cells, geometric mean, read-out: hGLP-1R EC50.

Read-outs that look alike come from different tables or passages of the source. Starred links: 1 amine or outer side, 2 acyl side, 3 side chain; linkers in the order of their positions; H or OH if unused. Non-standard residues stand in square brackets, D forms with d. Residues, ends and D or L forms follow the SMILES beside them. Groups on a side chain read outwards from the residue. *: point of attachment. Trp(5-Br) = N[C@@H](Cc1c[nH]c2ccc(Br)cc12)C(=O)O; C20 diacid = O=C(O)CCCCCCCCCCCCCCCCCCC(=O)*; C18 diacid = O=C(O)CCCCCCCCCCCCCCCCC(=O)*; γGlu = O=C(O)[C@H](CCC(=O)[*:2])N[*:1]; αMeF = C[C@](N)(Cc1ccccc1)C(=O)O; AEEA = NCCOCCOCC(=O)O; Aib = CC(C)(N)C(=O)O

human glucagon receptor (hGCGR), sequence (P47871 26-477): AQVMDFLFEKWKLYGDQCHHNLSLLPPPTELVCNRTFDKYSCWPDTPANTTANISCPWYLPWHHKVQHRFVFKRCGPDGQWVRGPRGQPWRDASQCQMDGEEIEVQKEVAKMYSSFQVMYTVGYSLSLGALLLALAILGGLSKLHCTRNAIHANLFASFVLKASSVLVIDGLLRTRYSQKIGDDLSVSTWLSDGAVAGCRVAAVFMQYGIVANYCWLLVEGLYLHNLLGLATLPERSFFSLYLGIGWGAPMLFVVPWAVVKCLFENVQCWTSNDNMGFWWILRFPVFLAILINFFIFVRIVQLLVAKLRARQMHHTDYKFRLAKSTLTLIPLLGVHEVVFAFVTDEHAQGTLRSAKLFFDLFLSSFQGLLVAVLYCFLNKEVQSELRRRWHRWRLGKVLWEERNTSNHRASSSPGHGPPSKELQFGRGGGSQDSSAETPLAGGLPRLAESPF
human GLP-1 receptor (hGLP-1R), sequence (P43220 24-463): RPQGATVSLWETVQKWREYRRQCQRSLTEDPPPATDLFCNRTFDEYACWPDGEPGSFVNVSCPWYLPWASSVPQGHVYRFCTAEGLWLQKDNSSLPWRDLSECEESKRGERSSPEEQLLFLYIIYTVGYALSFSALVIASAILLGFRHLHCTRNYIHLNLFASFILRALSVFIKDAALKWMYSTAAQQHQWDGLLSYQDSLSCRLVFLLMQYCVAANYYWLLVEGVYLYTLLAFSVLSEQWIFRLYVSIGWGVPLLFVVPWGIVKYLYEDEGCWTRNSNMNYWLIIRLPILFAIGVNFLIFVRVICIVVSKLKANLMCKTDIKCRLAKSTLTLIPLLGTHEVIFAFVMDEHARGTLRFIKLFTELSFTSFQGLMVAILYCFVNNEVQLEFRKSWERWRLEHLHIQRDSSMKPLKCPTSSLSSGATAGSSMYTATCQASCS

In general, EC50 refers to the concentration at which the effect is half-maximal. For `CC[C@H](C)[C@H](NC(=O)[C@H](CO)NC(=O)[C@H](CCC(=O)O)NC(=O)[C@@H](NC(=O)[C@H](Cc1ccccc1)NC(=O)[C@H](CC(=O)O)NC(=O)[C@H](CCCCNC(=O)CC[C@H](NC(=O)CCCCCCCCCCCCCCCCC(=O)O)C(=O)O)NC(=O)[C@H](C)NC(=O)C(C)(C)NC(=O)[C@H](CCCNC(=N)N)NC(=O)[C@H](CO)NC(=O)[C@H](CC(=O)O)NC(=O)[C@H](CC(C)C)NC(=O)[C@](C)(Cc1ccccc1)NC(=O)[C@H](CCCCN)NC(=O)[C@H](CO)NC(=O)[C@@H](NC(=O)[C@H](CC(=O)O)NC(=O)[C@H](CO)NC(=O)[C@@H](NC(=O)[C@](C)(Cc1ccccc1)NC(=O)[C@H](CO)NC(=O)CNC(=O)[C@H](Cc1c[nH]cn1)NC(=O)C(C)(C)NC(=O)[C@@H](N)Cc1c[nH]cn1)[C@@H](C)O)C(C)C)C(C)C)C(=O)N[C@@H](C)C(=O)N[C@@H](CC(N)=O)C(=O)N[C@H](C(N)=O)[C@@H](C)O` [Peptide 254] (H-H[Aib]HGS[αMeF]TSDVSK[αMeF]LDSR[Aib]AK([γGlu-C18 diacid])DFVESIANT-NH2), the EC50 in test [1] (setting [3]) is 125 pM; in test [2] (setting [4]) it was 102 pM. For the same compound, the “% Relative Potency Ratio” value in test [2] (Table 7) turned out to be 2.4.
For the compound `CC(C)C[C@H](NC(=O)[C@H](C)NC(=O)[C@H](CCCNC(=N)N)NC(=O)[C@H](CCCCNC(=O)COCCOCCNC(=O)COCCOCCNC(=O)CC[C@H](NC(=O)CCCCCCCCCCCCCCCCC(=O)O)C(=O)O)NC(=O)[C@H](CO)NC(=O)[C@H](CC(=O)O)NC(=O)[C@H](CC(C)C)NC(=O)[C@](C)(Cc1ccccc1)NC(=O)[C@H](CCCCN)NC(=O)[C@H](CO)NC(=O)[C@@H](NC(=O)[C@H](CC(=O)O)NC(=O)[C@H](CO)NC(=O)[C@@H](NC(=O)[C@H](Cc1ccccc1)NC(=O)[C@@H](NC(=O)CNC(=O)[C@H](CCC(N)=O)NC(=O)C(C)(C)NC(=O)[C@@H](N)Cc1c[nH]cn1)[C@@H](C)O)[C@@H](C)O)C(C)C)C(=O)N[C@@H](CC(=O)O)C(=O)N[C@@H](Cc1ccccc1)C(=O)N[C@H](C(=O)N[C@@H](CCCNC(=N)N)C(=O)N[C@@H](Cc1c[nH]c2ccccc12)C(=O)N[C@@H](CC(C)C)C(=O)N[C@@H](CC(C)C)C(=O)NC(C)(C)C(=O)N[C@H](C(=O)N[C@@H](CCC(=O)O)C(=O)O)[C@@H](C)O)C(C)C` [Peptide 168] (H-H[Aib]QGTFTSDVSK[αMeF]LDSK([AEEA-AEEA-γGlu-C18 diacid])RALDFVRWLL[Aib]TE-OH; N-terminus assumed), the EC50 was 886 pM in test [1] (setting [5]) and 448 pM in test [2] (setting [6]). Also, the “% Relative Potency Ratio” value in test [2] (Table 6) is given as 3.9.
Consider `CC[C@H](C)[C@H](NC(=O)[C@H](Cc1c[nH]c2ccccc12)NC(=O)[C@H](CCC(N)=O)NC(=O)[C@@H](NC(=O)[C@](C)(Cc1ccccc1)NC(=O)[C@H](CC(=O)O)NC(=O)[C@H](CCCCNC(=O)COCCOCCNC(=O)COCCOCCNC(=O)CC[C@H](NC(=O)CCCCCCCCCCCCCCCCCCC(=O)O)C(=O)O)NC(=O)[C@H](C)NC(=O)[C@H](C)NC(=O)[C@H](CCCNC(=N)N)NC(=O)[C@H](CO)NC(=O)[C@H](CC(=O)O)NC(=O)[C@H](CC(C)C)NC(=O)[C@](C)(Cc1ccccc1)NC(=O)[C@H](CCCCN)NC(=O)[C@H](CO)NC(=O)[C@@H](NC(=O)[C@H](CC(=O)O)NC(=O)[C@H](CO)NC(=O)[C@@H](NC(=O)[C@](C)(Cc1ccccc1)NC(=O)[C@H](CO)NC(=O)CNC(=O)[C@H](Cc1c[nH]cn1)NC(=O)C(C)(C)NC(=O)[C@@H](N)Cc1c[nH]cn1)[C@@H](C)O)C(C)C)C(C)C)C(=O)N[C@@H](C)C(=O)N[C@@H](CC(N)=O)C(=O)N[C@H](C(N)=O)[C@@H](C)O` [Peptide 215] (H-H[Aib]HGS[αMeF]TSDVSK[αMeF]LDSRAAK([AEEA-AEEA-γGlu-C20 diacid])D[αMeF]VQWIANT-NH2; N-terminus assumed), for which the EC50 in test [1] (setting [3]) worked out at 2610 pM; in test [2] (setting [4]) it was 7620 pM. Besides, the “% Relative Potency Ratio” value in test [2] (Table 7) was found to be 0.7.
Take `CC(C)C[C@H](NC(=O)[C@H](Cc1c[nH]c2ccccc12)NC(=O)[C@H](CCC(N)=O)NC(=O)[C@@H](NC(=O)[C@H](Cc1ccccc1)NC(=O)[C@H](CC(=O)O)NC(=O)[C@H](CCC(N)=O)NC(=O)[C@H](C)NC(=O)[C@H](CCCNC(=N)N)NC(=O)[C@H](CCCCNC(=O)COCCOCCNC(=O)COCCOCCNC(=O)CC[C@H](NC(=O)CCCCCCCCCCCCCCCCCCC(=O)O)C(=O)O)NC(=O)[C@@H](NC(=O)[C@H](CC(=O)O)NC(=O)[C@H](CC(C)C)NC(=O)[C@](C)(Cc1ccccc1)NC(=O)[C@H](CCCCN)NC(=O)[C@H](CO)NC(=O)[C@@H](NC(=O)[C@H](CC(=O)O)NC(=O)[C@H](CO)NC(=O)[C@@H](NC(=O)[C@H](Cc1ccccc1)NC(=O)[C@@H](NC(=O)CNC(=O)[C@H](CCC(N)=O)NC(=O)C(C)(C)NC(=O)[C@@H](N)Cc1c[nH]cn1)[C@@H](C)O)[C@@H](C)O)C(C)C)[C@@H](C)O)C(C)C)C(=O)N[C@@H](CC(C)C)C(=O)N[C@@H](CCCNC(=N)N)C(=O)NC(C)(C)C(=O)N[C@@H](C)C(=O)O` [Peptide 500] (H-H[Aib]QGTFTSDVSK[αMeF]LDTK([AEEA-AEEA-γGlu-C20 diacid])RAQDFVQWLLR[Aib]A-OH; N-terminus assumed): the figures for the EC50 in test [1] (setting [5]) and in test [2] (setting [6]) were 101 pM and 102 pM, respectively. Moreover, the “% Relative Potency Ratio” value in test [2] (Table 6) is 2.0.
As to `CC(C)C[C@H](NC(=O)[C@H](Cc1c[nH]c2ccc(Br)cc12)NC(=O)[C@H](CCCNC(=N)N)NC(=O)[C@@H](NC(=O)[C@H](Cc1ccccc1)NC(=O)[C@H](CC(=O)O)NC(=O)[C@H](CCC(N)=O)NC(=O)[C@H](C)NC(=O)[C@H](CCCNC(=N)N)NC(=O)[C@H](CCCCNC(=O)COCCOCCNC(=O)COCCOCCNC(=O)CC[C@H](NC(=O)CCCCCCCCCCCCCCCCC(=O)O)C(=O)O)NC(=O)[C@H](CO)NC(=O)[C@H](CC(=O)O)NC(=O)[C@H](CC(C)C)NC(=O)[C@](C)(Cc1ccccc1)NC(=O)[C@H](CCCCN)NC(=O)[C@H](CO)NC(=O)[C@@H](NC(=O)[C@H](CC(=O)O)NC(=O)[C@H](CO)NC(=O)[C@@H](NC(=O)[C@H](Cc1ccccc1)NC(=O)[C@@H](NC(=O)CNC(=O)[C@H](CCC(N)=O)NC(=O)C(C)(C)NC(=O)[C@@H](N)Cc1c[nH]cn1)[C@@H](C)O)[C@@H](C)O)C(C)C)C(C)C)C(=O)N[C@@H](CC(C)C)C(=O)NC(C)(C)C(=O)N[C@@H](CCC(=O)O)C(=O)O` [Peptide 434] (H-H[Aib]QGTFTSDVSK[αMeF]LDSK([AEEA-AEEA-γGlu-C18 diacid])RAQDFVR[Trp(5-Br)]LL[Aib]E-OH; N-terminus assumed), the values for the EC50 in test [1] (setting [5]) and in test [2] (setting [6]) were 294 pM and 153 pM, respectively. Further, the “% Relative Potency Ratio” value in test [2] (Table 6) is given as 3.8.
Consider `CC(C)C[C@H](NC(=O)[C@H](Cc1c[nH]c2ccccc12)NC(=O)[C@H](C)NC(=O)[C@@H](NC(=O)[C@H](Cc1ccccc1)NC(=O)[C@H](CC(=O)O)NC(=O)[C@H](CCC(N)=O)NC(=O)[C@H](C)NC(=O)[C@H](CCCNC(=N)N)NC(=O)[C@H](CCCCNC(=O)COCCOCCNC(=O)COCCOCCNC(=O)CC[C@H](NC(=O)CC[C@H](NC(=O)CCCCCCCCCCCCCCCCCCC(=O)O)C(=O)O)C(=O)O)NC(=O)[C@@H](NC(=O)[C@H](CC(=O)O)NC(=O)[C@H](CC(C)C)NC(=O)[C@](C)(Cc1ccccc1)NC(=O)[C@H](CCCCN)NC(=O)[C@H](CO)NC(=O)[C@@H](NC(=O)[C@H](CC(=O)O)NC(=O)[C@H](CO)NC(=O)[C@@H](NC(=O)[C@H](Cc1ccccc1)NC(=O)[C@@H](NC(=O)CNC(=O)[C@H](CCC(N)=O)NC(=O)C(C)(C)NC(=O)[C@@H](N)Cc1c[nH]cn1)[C@@H](C)O)[C@@H](C)O)C(C)C)[C@@H](C)O)C(C)C)C(=O)N[C@@H](CCC(=O)O)C(=O)N[C@@H](C)C(=O)NC(C)(C)C(=O)NCC(=O)O` [Peptide 418] (H-H[Aib]QGTFTSDVSK[αMeF]LDTK([AEEA-AEEA-γGlu-γGlu-C20 diacid])RAQDFVAWLEA[Aib]G-OH; N-terminus assumed), for which the EC50 came out at 222 pM in test [1] (setting [5]) and 88.1 pM in test [2] (setting [6]). In test [2] (Table 6), the “% Relative Potency Ratio” value was found to be 5.0.
`CC[C@H](C)[C@H](NC(=O)[C@H](Cc1c[nH]c2ccccc12)NC(=O)[C@H](CCCCNC(=O)COCCOCCNC(=O)COCCOCCNC(=O)CC[C@H](NC(=O)CCCCCCCCCCCCCCCCCCC(=O)O)C(=O)O)NC(=O)[C@@H](NC(=O)[C@H](Cc1ccccc1)NC(=O)[C@H](CC(=O)O)NC(=O)[C@H](CCC(N)=O)NC(=O)[C@H](C)NC(=O)[C@H](C)NC(=O)[C@H](CCC(N)=O)NC(=O)[C@H](CO)NC(=O)[C@H](CC(=O)O)NC(=O)[C@H](CC(C)C)NC(=O)[C@](C)(Cc1ccccc1)NC(=O)[C@H](CCCCN)NC(=O)[C@H](CO)NC(=O)[C@@H](NC(=O)[C@H](CC(=O)O)NC(=O)[C@H](CO)NC(=O)[C@@H](NC(=O)[C@](C)(Cc1ccccc1)NC(=O)[C@H](CO)NC(=O)CNC(=O)[C@H](Cc1c[nH]cn1)NC(=O)C(C)(C)NC(=O)[C@@H](N)Cc1c[nH]cn1)[C@@H](C)O)C(C)C)C(C)C)C(=O)N[C@@H](C)C(=O)N[C@@H](CC(N)=O)C(=O)N[C@H](C(N)=O)[C@@H](C)O` [Peptide 356] (H-H[Aib]HGS[αMeF]TSDVSK[αMeF]LDSQAAQDFVK([AEEA-AEEA-γGlu-C20 diacid])WIANT-NH2; N-terminus assumed): the EC50 in test [1] (hGluc-R EC50 (pM), cAMP, CHO cells, 0.1% BSA) is 316 pM; in test [2] (hGLP-1R EC50 (pM)) it was 304 pM. Moreover, the “% Relative Potency Ratio” value in test [2] is listed as 2.1.
